Experimental data reported in patent publication US9108902B2, “Deuterated 2-amino-3-hydroxypropanoic acid derivatives” (Concert Pharmaceuticals, Inc., priority 2008, dated 2015).
Like-named read-outs stand apart in the source and are kept apart here.

Experiments:
[1] = Pharmacokinetic study in chimps after oral and intravenous co-dosing: plasma levels by LC-MS/MS; assay type: in vivo; conditions: for Cmax / AUC(0-t): plasma, 50 mg, co-administered 1:1; for AUC(0-t): read-out: AUC(0-24)
Description: (§1) A 1:1 mixture of the two compounds was then prepared containing a final concentration of 1 mg/mL of each compound and the mixture was then sterile filtered through a 0.2-μm filter.
Two chimps (one male and one female) were used in each of the oral and intravenous studies. Animals were fasted overnight prior to administration of compounds. All animals were sedated with ketamine (approximately 10 mg/kg) and/or telazol (approximately 5 mg/kg) prior to dosing. Intravenous administration was achieved by IV infusion of 50 mg of each compound (50 mL total dosing solution) over 30 minutes. Oral administration was achieved by oral gavage of a single 50 mg dose of each compound (50 mL total dosing solution). Blood samples (4.5 mL) were collected from the dosed chimps at various times prior to and after dosing. For intravenous administrations blood samples were collected at 0 min (preinfusion), 15 min, 29.5 min (immediately before the end of the infusion), then 6, 15, 30 and 45 min, and 1, 2, 4, 6, 8, 10, 12 and 24 hr after the infusion is stopped. For oral administrations, blood samples were collected at 0 min (predose), 15 and 30 min, and 1, 1.5, 2, 4, 6, 8, 10 and 12 hr postdose.
Blood samples were placed in tubes containing sodium heparin, mixed and stored on ice until centrifuged. Within 30 minutes of collection, plasma was isolated by centrifuging the blood samples and dividing the resulting plasma (approx. 2 ml) between two 96-deepwell plates. Each plate was sealed and stored at −70° C. until further analysis by LC-MS/MS using an Applied Bio-systems API 4000 mass spectrometer.
(§2) Samples were analyzed by LC-MS/MS using an Applied Bio-systems API 4000 mass spectrometer.

[2] = Pharmacokinetic study in chimps after oral and intravenous co-dosing: unmetabolized compound in urine; assay type: in vivo; conditions: both sexes, chimpanzee, 50 mg of each compound co-administered, average of chimps, urine collected 24 hours post-dose, read-out: Unmetabolized Compound Found in Urine
Description: as §1
Two chimps (one male and one female) were used in each of the oral and intravenous studies. Animals were fasted overnight prior to administration of compounds. All animals were sedated with ketamine (approximately 10 mg/kg) and/or telazol (approximately 5 mg/kg) prior to dosing. Intravenous administration was achieved by IV infusion of 50 mg of each compound (50 mL total dosing solution) over 30 minutes. Oral administration was achieved by oral gavage of a single 50 mg dose of each compound (50 mL total dosing solution). Blood samples (4.5 mL) were collected from the dosed chimps at various times prior to and after dosing.
Urine was collected for 24 hours post-dose for each test animal and stored on ice. Total volume was measured and an aliquot was stored at −70° C. until further analysis
as §2

[3] = iv, Chimp 1, IV infusion 50 mg of each compound over 30 min
[4] = iv, Chimp 2, IV infusion 50 mg of each compound over 30 min
[5] = po, Chimp 3, PO gavage single 50 mg dose of each compound
[6] = po, Chimp 4, PO gavage single 50 mg dose of each compound
[7] = following either intravenous or oral administration to chimps

Row | SMILES | Cmax [1, 3] [ng/mL] | AUC(0-t) [1, 3] [ng·h/mL] | Cmax [1, 4] [ng/mL] | AUC(0-t) [1, 4] [ng·h/mL] | Cmax [1, 5] [ng/mL] | AUC(0-t) [1, 5] [ng·h/mL] | Cmax [1, 6] [ng/mL] | AUC(0-t) [1, 6] [ng·h/mL] | concentration at 24 h ([2]; IV) [ng/mL] | concentration at 24 h ([2]; PO) [ng/mL] | AUC compared with lacosamide [1, 7] | Cmax compared with lacosamide [1, 7]
1 | COC[C@@H](NC(C)=O)C(=O)NCc1ccccc1 [Lacosamide, 2(R)-acetamido-N-benzyl-3-methoxypropionamide, reference compound] | 4770 | 27600 | 1560 | 23000 | 1370 | 20400 | 1090 | 15900 | 9520 | 2720 | – | –
2 | [2H]C([2H])([2H])OC[C@@H](NC(=O)C([2H])([2H])[2H])C(=O)NCc1ccccc1 [Compound 120, (R)-2-(Acetamido-d3)—N-benzyl-3-(methoxy-d3)propanamide] | 5280 | 31300 | 1690 | 25400 | 1540 | 23100 | 1180 | 18000 | 11000 | 3200 | higher | higher
